Reference: patent US20180185510A1, “ANTIBODY DRUG CONJUGATES OF KINESIN SPINDEL PROTEIN (KSP) INHIBITORS WITH ANTI-B7H3-ANTIBODIES” (BAYER PHARMA AKTIENGESELLSCHAFT, priority 2015, published 2018)

How the values were obtained:
[1] = test system: NCI-H292: human mucoepidermoid lung carcinoma cells; experiment: MTT assay, cytotoxicity of metabolites, NCI-H292; type: cell-based
Description: NCI-H292: human mucoepidermoid lung carcinoma cells, ATCC-CRL-1848, standard medium: RPMI 1640 (Biochrom; #FG1215, stab. glutamine)+10% FCS (Biochrom; #S0415).
(§1) The cells were cultivated according to the standard method using the growth media listed under C-1. The test is carried out by detaching the cells with a solution of Accutase in PBS (Biochrom AG #L2143), pelleting, resuspending in culture medium, counting and sowing into a 96-well culture plate with white bottom (Costar #3610) (NCI H292: 2500 cells/well in a total volume of 100 μl). The cells were then incubated in an incubator at 37° C. and 5% carbon dioxide. After 48 h, the medium was replaced. The metabolites in 10 μl of culture medium in concentrations from 10^−5M to 10^−13M were then pipetted to the cells (in triplicate), and the assay was then incubated in an incubator at 37° C. and 5% carbon dioxide. […] To this end, the MTT reagent was incubated with the cells for 4 h, followed by lysis of the cells overnight by addition of the detergent. The dye formed was detected at 570 nm (Infinite M1000 pro, Tecan). The measured data were used to calculate the IC50 of the growth inhibition using the DRC (dose response curve). The proliferation of cells which were not treated with test substance but were otherwise identically treated was defined as the 100% figure.

[2] = Flux assay for cell permeability using Caco-2 cells; conditions: human, Caco-2
KPL4 = experiment: MTT assay, cytotoxicity of metabolites, KPL4; type: cell-based; conditions: 96 h incubation
Description: as §1

Caco-2 cells = experiment: Flux assay for cell permeability using Caco-2 cells; conditions: Caco-2, basal to apical, 2 hours
[3] = test system: Caki-2: human renal carcinoma cells; experiment: CTG assay, cytotoxic effects of the anti-B7H3 ADCs, Caki-2; type: cell-based; conditions: growth inhibition vs day 0, 72 h incubation, B7H3-positive cells
Description: Caki-2: human renal carcinoma cells, ATCC-HTB-27, standard medium: DMEM/Ham's F12 (#FG4815, Biochrom AG)+10% FCS (#F2442, Sigma), B7H3-positive.

[4] = test system: A498: human renal carcinoma cells; experiment: CTG assay, cytotoxic effects of the anti-B7H3 ADCs, A498; type: cell-based; conditions: growth inhibition vs day 0, 72 h incubation, B7H3-positive cells
Description: (§2) The analysis of the cytotoxic effects of the anti-B7H3 ADCs was carried out with various cell lines:
(§3) The cells were cultivated by the standard method as stated by the American Tissue Culture Collection (ATCC) for the cell lines in question.
(§4) The cells were cultivated according to the standard method using the growth media listed under C-1. […] The cells were then incubated in an incubator at 37° C. and 5% carbon dioxide. In a parallel plate, the cell vitality was determined at the start of the drug treatment (day 0) using the Cell Titer Glow (CTG) Luminescent Cell Viability Assay (Promega #G7573 and #G7571). To this end, 100 μl of the substrate were added per cell batch, the plates were then covered with aluminium foil, shaken on the plate shaker at 180 rpm for 2 minutes, allowed to stand on the laboratory bench for 8 minutes and then measured using a luminometer (Victor X2, Perkin Elmer). The substrate detects the ATP content in the living cells, generating a luminescence signal the height of which is directly proportional to the vitality of the cells. […] From the measured data, the IC50 of the growth inhibition in comparison to day 0 was calculated using the DRC (dose response curve) analysis spreadsheets with a 4-parameter fit. […]

[5] = test system: MCF-7: human breast cancer cells; experiment: CTG assay, cytotoxic effects of the anti-B7H3 ADCs, MCF-7; type: cell-based; conditions: MCF7, growth inhibition vs day 0, 72 h incubation, B7H3-positive cells
Description: as §2, §3, §4

[6] = test system: Raji: human Burkitt's lymphoma cells; experiment: CTG assay, cytotoxic effects of the anti-B7H3 ADCs, Raji; type: cell-based; conditions: growth inhibition vs day 0, 72 h incubation, B7H3-negative cells
Description: as §2, §3, §4

[7] = biological target: T1, motor domain of the human kinesin spindle protein KSP/Eg5 (Homo sapiens, UniProt P52732); experiment: Inhibition of the kinesin spindle protein, ATPase activity (malachite green); type: biochemical; conditions: 10 nM KSP/Eg5 motor domain, microtubuli, ATP 500 μM, 2 h RT
T1 construct: The motor domain of the human kinesin spindle protein KSP/Eg5; purchased tebu-bio/Cytoskeleton Inc 027EG01-XL
T1 sequence (P52732 18-359 limits assumed): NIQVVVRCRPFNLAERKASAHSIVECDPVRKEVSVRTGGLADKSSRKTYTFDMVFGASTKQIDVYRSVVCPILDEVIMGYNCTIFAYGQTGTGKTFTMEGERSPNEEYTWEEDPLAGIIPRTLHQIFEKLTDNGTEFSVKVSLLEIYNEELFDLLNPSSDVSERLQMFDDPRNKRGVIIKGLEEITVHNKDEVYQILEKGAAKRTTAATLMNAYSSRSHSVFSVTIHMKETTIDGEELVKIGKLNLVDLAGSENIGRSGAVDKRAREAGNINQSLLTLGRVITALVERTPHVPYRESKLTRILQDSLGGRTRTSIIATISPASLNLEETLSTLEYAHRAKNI
Description: The motor domain of the human kinesin spindle protein KSP/Eg5 (tebu-bio/Cytoskeleton Inc, No. 027EG01-XL) was incubated in a concentration of 10 nM with microtubuli (bovine or porcine, tebu-bio/Cytoskeleton Inc) stabilized with 50 μg/ml taxol (Sigma No. T7191-5MG) for 5 min at RT in 15 mM PIPES, pH 6.8 (5 mM MgCl2 and 10 mM DTT, Sigma). […] Incubation was at RT for 2 h. ATPase activity was detected by detecting the inorganic phosphate formed using malachite green (Biomol). […] The positive controls used were monastrol (Sigma, M8515-1 mg) and ispinesib (AdooQ Bioscience A10486). The individual data of the dose-activity curve are eight-fold determinations. The IC50 values are means of two independent experiments.

[8] = biological target: T2, human B7H3 (RnDSystems, 2318-B3-050/CF) (human, UniProt Q5ZPR3 29-461); experiment: ELISA; antibody captured on anti-human IgG Fc, antigen 37 ng/ml, anti-His HRP / Amplex Red
T2 construct: Bought antigen, detected with an anti-His HRP antibody, so a His tag is implied
T2 sequence (looked up): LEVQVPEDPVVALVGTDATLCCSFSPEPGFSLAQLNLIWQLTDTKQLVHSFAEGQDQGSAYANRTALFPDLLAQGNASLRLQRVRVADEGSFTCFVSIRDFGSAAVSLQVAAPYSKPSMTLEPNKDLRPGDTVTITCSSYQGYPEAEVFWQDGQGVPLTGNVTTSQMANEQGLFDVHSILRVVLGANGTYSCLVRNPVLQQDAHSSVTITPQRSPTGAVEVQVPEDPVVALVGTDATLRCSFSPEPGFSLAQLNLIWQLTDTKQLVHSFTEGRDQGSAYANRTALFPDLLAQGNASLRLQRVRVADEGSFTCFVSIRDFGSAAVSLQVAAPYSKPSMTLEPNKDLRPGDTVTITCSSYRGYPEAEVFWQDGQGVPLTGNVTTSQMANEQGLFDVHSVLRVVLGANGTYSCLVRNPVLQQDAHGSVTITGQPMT
Description: (§5) TPP5706 was synthesized as described above. Binding of TPP5706 to human B7H3 and to human B7H2 and B7H4 was characterized using ELISAs. […] After washing once with PBS, 0.05% Tween, the plate was blocked with 100% Smart Block (Candor) for one hour at 37° C. The antibody to be tested (e.g. TPP5706 or one of its derivatives) was then attached to the plate (2 μg/ml IgG in PBS, 0.05% Tween, 10% Smart Block; 1 hour, room temperature). […] After washing three times, the plate was incubated with Amplex Red for 30 minutes and then read.

[9] = biological target: T3, human B7H2 (RnDSystems, 8206-B7) (human, UniProt O75144 19-258, limits assumed); experiment: as above
T3 construct: Bought antigen, detected with an anti-His HRP antibody
T3 sequence (looked up): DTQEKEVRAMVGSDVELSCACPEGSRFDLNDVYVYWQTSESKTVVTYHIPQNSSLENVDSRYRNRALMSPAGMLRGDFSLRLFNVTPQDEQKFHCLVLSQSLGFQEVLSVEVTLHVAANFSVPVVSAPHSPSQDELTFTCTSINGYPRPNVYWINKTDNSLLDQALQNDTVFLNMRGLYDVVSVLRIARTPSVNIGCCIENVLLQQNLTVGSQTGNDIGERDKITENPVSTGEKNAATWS
Description: as §5

[10] = biological target: T4, human B7H4 (RnDSystems, 6576-B7) (human, UniProt Q7Z7D3 29-258, limits assumed); experiment: as above
T4 construct: Bought antigen, detected with an anti-His HRP antibody
T4 sequence (looked up): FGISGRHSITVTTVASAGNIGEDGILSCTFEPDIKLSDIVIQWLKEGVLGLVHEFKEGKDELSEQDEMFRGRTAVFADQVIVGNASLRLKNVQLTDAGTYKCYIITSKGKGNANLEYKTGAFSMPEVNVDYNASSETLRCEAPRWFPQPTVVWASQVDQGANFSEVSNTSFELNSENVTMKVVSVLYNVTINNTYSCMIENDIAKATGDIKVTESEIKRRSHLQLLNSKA
Description: as §5

[11] = NCI-H292, 96 h, 96 h incubation

Which results are given for `CC(C)(C)[C@H](c1cc(-c2cc(F)ccc2F)cn1Cc1ccccc1)N(CC[C@H](N)C(=O)NCCNC(=O)CNC(=O)CC(SC[C@H](N)C(=O)O)C(=O)O)C(=O)CO` (mixture of isomers) [Example M26, 4-[(2-{[2-({(2S)-2-Amino-4-[{(1R)-1-[1-benzyl-4-(2,5-difluorophenyl)-1H-pyrrol-2-yl]-2,2-dimethylpropyl}(glycoloyl)amino]butanoyl}amino)ethyl]amino}-2-oxoethyl)amino]-2-{[(2R)-2-amino-2-carboxyethyl]sulphanyl}-4-oxobutanoic acid-trifluoroacetic acid (1:1)]?
IC50 [1, 11]: 63.8 nM; Papp B→A at 2 h [2]: 1.3 ×10⁻⁶ cm/s

For `CC(C)(C)[C@H](c1cc(-c2cc(F)ccc2F)cn1Cc1ccccc1)N(CC[C@H](N)C(=O)NC(CCC(=O)O)C(=O)O)C(=O)CO.O=C(O)C(F)(F)F` (stereo in doubt) [Example M25, N-{(2S)-2-Amino-4-[{(1R)-1-[1-benzyl-4-(2,5-difluorophenyl)-1H-pyrrol-2-yl]-2,2-dimethylpropyl}(glycoloyl)amino]butanoyl}-L-glutamic acid-trifluoroacetic acid (1:1)], which IC50 (KPL4; KPL4) is on record?
The IC50 was 500 nM.

And the IC50 ([1]; NCI-H292, 96 h incubation)?
Its IC50 is 500 nM.

What about the “Papp (B-A)” value (Caco-2 cells) of the same molecule?
Its value is 0.81 ×10⁻⁶ cm/s.

With `CC(C)(C)C(c1cc(-c2cc(F)ccc2F)cn1Cc1ccccc1)N(CC[C@H](N)C(=O)NCCNC(=O)CN1C(=O)CC(SC[C@H](N)C(=O)O)C1=O)C(=O)CO.O=C(O)C(F)(F)F` (stereo partly drawn) [Example M1, S-[1-(2-{[2-({(2S)-2-Amino-4-[{(1R)-1-[1-benzyl-4-(2,5-difluorophenyl)-1H-pyrrol-2-yl]-2,2-dimethylpropyl}(glycoloyl)amino]butanoyl}amino)ethyl]amino}-2-oxoethyl)-2,5-dioxopyrrolidin-3-yl]-L-cysteine/trifluoroacetic acid (1:1)] as the molecule, how does the IC50 (KPL4; KPL4, 96 h) read?
The IC50 was 500 nM.

And the IC50 [1, 11]?
Its IC50 is 500 nM.

What about the Papp B→A at 2 h [2] of the same molecule?
Its Papp B→A at 2 h is 0.78 ×10⁻⁶ cm/s.

What does the source list for `CC(C)(C)[C@H](c1cc(-c2cc(F)ccc2F)cn1Cc1ccccc1)N(CCCN)C(=O)CO` [Example M09, N-(3-Aminopropyl)-N-{(1R)-1-[1-benzyl-4-(2,5-difluorophenyl)-1H-pyrrol-2-yl]-2,2-dimethylpropyl}-2-hydroxyacetamide]?
IC50 [3]: 0.0975 nM; IC50 [4]: 0.0165 nM; IC50 [5]: 0.015 nM; IC50 [6]: 0.015 nM

With `CC(C)(C)[C@H](c1cc(-c2cc(F)ccc2F)cn1Cc1ccccc1)N(CCCN)C(=O)CO` [Example M9, N-(3-Aminopropyl)-N-{(1R)-1-[1-benzyl-4-(2,5-difluorophenyl)-1H-pyrrol-2-yl]-2,2-dimethylpropyl}-2-hydroxyacetamide] as the molecule, how does the IC50 [7] read?
The IC50 was 1.07 nM.

For `CC(C)(C)[C@H](c1cc(-c2cc(F)ccc2F)cn1Cc1ccccc1)N(CCCN)C(=O)CSC[C@H](NC(=O)CCOCCOCCOCCOCCNC(=O)CNC(=O)C(CC(=O)O)SC[C@H](N)C(=O)O)C(=O)O` (stereo partly drawn) [Example M21, (2R,24S,27R)-27-Amino-2-[({2-[(3-aminopropyl) {(1R)-1-[1-benzyl-4-(2,5-difluorophenyl)-1H-pyrrol-2-yl]-2,2-dimethylpropyl}amino]-2-oxoethyl}sulphanyl)methyl]-24-(carboxymethyl)-4,20,23-trioxo-7,10,13,16-tetraoxa-25-thia-3,19,22-triazaoctacosane-1,28-dioic acid/trifluoroacetic acid (1:2)], which IC50 [7] is on record?
The IC50 was 2.31 nM.

B1: TPP-5706 (antibody, human IgG1, kappa, V domains shown)
VH: QVQLQQPGAELVKPGASVKMSCKASGYTFTIYNVHWIKQTPGQGLEWMGTIFPGNGDTSYNQKFKDKATLTTDKSSKTAYMQLNSLTSEDSAVYYCARWDDGNVGFAHWGQGTLVTVSA
VL: DIQMTQSPASLSASVGETVTITCRASENINNYLTWFQQKQGKSPQLLVYHAKTLAEGVPSRFSGSGSGTQFSLKINSLQPEDFGSYYCQHHYGTPPTFGGGTKLEIKR
notes: Chimera of the murine Fv of the antibody from hybridoma PTA-4058 with the Ch1-Ch3 regions of a human IgG1; expressed as complete IgG; also called anti-B7H3 AK1B
Which “Quotient signal (B7)/signal (buffer)” value [8] does the source give for B1 here?
The value was 294.

And the “Quotient signal (B7)/signal (buffer)” value [9]?
Its value is under 1.5.

What about the “Quotient signal (B7)/signal (buffer)” value [10] of the same molecule?
Its value is under 1.5.
